Measurements published in paper PMC9456261 (International Journal of Molecular Sciences, 2022).
Read-outs that look alike come from different tables or passages of the source.

Columns and labels:
Assay in all cases: microbe, parasite or virus in culture
Type in all cases: cell-based
[1] = test system: SARS-CoV-2 Delta (B.1.617.2)
[2] = test system: SARS-CoV-2 Beta (B.1.351)
[3] = test system: SARS-CoV-2 Omicron (B.1.1.529)
[4] = Severe acute respiratory syndrome coronavirus 2, Vero C1008, 72 h

4-[5-[3-[5-(2-Bromophenoxy)pentyl]-2,6-dioxo-5-methyl-3,6-dihydropyrimidin-1(^2H)-yl]pentyloxy]benzoic acid [Compound 872]
IC50 [1]: > 50 µM | IC50 [2]: > 50 µM | IC50 [3]: 7.92 µM

O=C(O)c1ccc(OCCCCn2c(=O)ccn(Cc3cccc4ccccc34)c2=O)cc1 [Compound 601, 4-[4-[2,6-Dioxo-3-(naphthyl-1-methyl)-3,6-dihydropyrimidin-1(^2H)-yl]butoxy]benzoic acid]
IC50 [1, 4]: 32.7 µM | IC50 [2, 4]: 32.7 µM | IC50 [3, 4]: 27.1 µM

O=c1ccn(Cc2c3ccccc3cc3ccccc23)c(=O)n1CCCCCCOc1ccc(Br)cc1 [Compound 611, 1-(Anthracen-9-ylmethyl)-3-[6-(4-bromophenoxy)hexyl]uracil]
IC50 [1, 4]: 13.3 µM | IC50 [2, 4]: > 50 µM | IC50 [3, 4]: > 50 µM

O=C(O)c1ccc(OCCCCCn2c(=O)ccn(CCCCCOc3ccc(F)cc3)c2=O)cc1 [Compound 870, 4-[5-[3-[5-(4-Fluorophenoxy)pentyl]-2,6-dioxo-3,6-dihydropyrimidin-1(^2H)-yl]pentyloxy]benzoic acid]
IC50 [1, 4]: 14.6 µM | IC50 [2, 4]: 34.1 µM | IC50 [3, 4]: 24.4 µM

O=C(O)c1ccc(OCCCCCn2c(=O)ccn(CCCCCOc3ccccc3Br)c2=O)cc1 [Compound 871, 4-[5-[3-[5-(2-Bromophenoxy)pentyl]-2,6-dioxo-3,6-dihydropyrimidin-1(^2H)-yl]pentyloxy]benzoic acid]
IC50 [1, 4]: 26.6 µM | IC50 [2, 4]: 27.3 µM | IC50 [3, 4]: > 50 µM

O=C(O)c1ccc(OCCCCn2c(=O)ccn(CCCOc3ccc(Br)cc3)c2=O)cc1 [Compound 873, 4-[4-[3-[3-(4-Bromophenoxy)propyl]-2,6-dioxo-3,6-dihydropyrimidin-1(^2H)-yl]butoxy]benzoic acid]
IC50 [1, 4]: > 50 µM | IC50 [2, 4]: 50 µM | IC50 [3, 4]: 28.2 µM

Cc1cc(C)cc(OCCCCCn2ccc(=O)n(CCCCCOc3ccc(C(=O)O)cc3)c2=O)c1 [Compound 874, 4-[5-[3-[5-(3,5-Dimethylphenoxy)pentyl]-2,6-dioxo-3,6-dihydropyrimidin-1(^2H)-yl]pentyloxy]benzoic acid]
IC50 [1, 4]: 30.2 µM | IC50 [2, 4]: 29.1 µM | IC50 [3, 4]: > 50 µM

O=C(O)c1ccc(Cn2c(=O)ccn(CCCCCOc3ccc(Br)cc3)c2=O)cc1 [Compound 875]
IC50 [1, 4]: 30.7 µM | IC50 [2, 4]: 33.1 µM | IC50 [3, 4]: 22.6 µM

O=C(O)c1ccc(OCCCCCn2c(=O)ccn(Cc3c4ccccc4cc4ccccc34)c2=O)cc1 [Compound 876]
IC50 [1, 4]: 29.3 µM | IC50 [2, 4]: 23.8 µM | IC50 [3, 4]: 22.4 µM

O=C(O)c1ccc(OCCCCn2c(=O)ccn(Cc3ccc4ccccc4c3)c2=O)cc1 [Compound 1005, 4-[4-[2,6-Dioxo-3-(naphthyl-2-methyl)-3,6-dihydropyrimidin-1(^2H)-yl]butoxy]benzoic acid]
IC50 [1, 4]: 27.8 µM | IC50 [2, 4]: 15.5 µM | IC50 [3, 4]: > 50 µM

O=C(O)c1ccc(OCCCCn2c(=O)ccn(Cc3ccc(Br)c4ccccc34)c2=O)cc1 [Compound 1006, 4-[4-[3-(4-Bromonaphthyl-1-methyl)-2,6-dioxo-3,6-dihydropyrimidin-1(2H)-yl]butoxy]benzoic acid]
IC50 [1, 4]: 27.4 µM | IC50 [2, 4]: > 50 µM | IC50 [3, 4]: > 50 µM

O=C(O)c1ccc(OCCCn2c(=O)ccn(CCCCCCCCCCCCOc3ccc(Br)cc3)c2=O)cc1 [Compound 1007, 4-[3-[3-[12-(4-Bromophenoxy)dodecyl]-2,6-dioxo-3,6-dihydropyrimidin-1(^2H)-yl]propoxy]benzoic acid]
IC50 [1, 4]: > 50 µM | IC50 [2, 4]: > 50 µM | IC50 [3, 4]: > 50 µM
